According to patent US8097646B2, “Ophthalmic preparation containing menthyl ester of indomethacin” (AlphaRx, Inc., priority 2005, dated 2012):

Legend:
[1] = cited from earlier work
[2] = Solubility of the substance in water and solvents; assay type: physicochemical
Procedure: MEI is a slightly yellow crystalline substance with a melting point of 86-90° C. […] The NMR, mass-spectrometry and FT-IR-spectrum results were: […]

[3] = test system: carrageenan paw edema; assay: Carrageenan paw edema model (Example 12, FIG. 3); assay type: in vivo; settings: intraperitoneally administrated, rats n=4, 1% carrageenan into hind paw
Procedure: FIG. 3 is a graph illustrating the comparative anti-inflammatory activity of indomethacin and MEI in a carrageenan paw edema model (rats, n=4) as described in Example 12.
FIG. 3 represents the anti-inflammatory activity of MEI in a carrageenan model. Inflammation in rats (n=4) was caused by injection of 100 microliters of sterile 1% carrageenan solution into a hind paw, originating local edema development with maximum development at 3-4 hours after administration. The contaralateral paw was injected with 100 microliters of saline and used as control. Paw volumes were measured by plethysmometry, (Ugo Basil Plethysmometer, Italy) and the calculated difference in paw volumes indicated the severity of inflammation.

[4] = test system: eye; assay: Comparison of ocular irritation levels, one drop onto the eye of volunteers (Example 10); assay type: in vivo, healthy volunteers; settings: ophthalmic formulation comprising MEI, volunteers n=3
Procedure: The ocular irritation of MEI in an ophthalmic formulation as compared with an indomethacin-containing ophthalmic preparation has been tested in 3 healthy volunteers. One drop (40-50 mcl) of the tested formulations (0.25% of MEI (as per Example 5-9), 0.1% Indocollyre®, and sterile saline as the control) was placed onto the eye of each volunteer using an appropriate dropper. The interval between sample applications was at least 24 hours The comparative irritation for MEI, indomethacin and other NSAIDs (Indocollyre®) in ophthalmic formulations is set out in Table 4 (volunteers data, n=3): The irritation scale in the above table ranges from 0-10, with 0 corresponding to no burning or itching, and 10 corresponding to extremely severe burning or itching.

[5] = Pharmacokinetics of MEI in rats after intraperitoneal administration (Example 11, FIG. 2); assay type: in vivo; settings: 20 mg/kg intraperitoneally, submicron emulsion (Example 6), Wistar rats
Procedure: FIG. 2 is a graph illustrating the pharmacokinetics of MEI in Wistar rats after intraperitoneal IP) administration (20 mg/kg, Example 6) as described in Example 11.

Solubility in alcohol, methylene chloride and chlorophorm, ethyl acetate, glycerides and other organic solvents ([2]; organic solvents) | Solubility in propylene glycol and polyethylene glycol (PEG)-400 ([2]; propylene glycol, PEG-400) | Solubility in water ([2]; water) | Level of the parent substance (MEI itself) [5] | Structure (SMILES) | pH above which the substance is unstable [1] | Anti-inflammatory activity (difference in paw volumes) [3] | Irritation compared with indomethacin in solution [4] | Metabolism of MEI and release of indomethacin [5]
– | – | – | – | COc1ccc2c(c1)c(CC(=O)O)c(C)n2C(=O)c1ccc(Cl)cc1 [Indomethacin, 1-(4-Chlorobenzoyl)-5-Methoxy-2-methyl-1H-indole-3-acetic acid] | greater than 6.0 | – | – | –
freely soluble | poorly soluble | insoluble | decreases rapidly | COc1ccc2c(c1)c(CC(=O)OC1CC(C)CCC1C(C)C)c(C)n2C(=O)c1ccc(Cl)cc1 (centres unmarked) [MEI, Menthyl ester of indomethacin] | – | high level of anti-inflammatory activity | significantly lower irritation than indomethacin in solution | rapidly metabolizes and releases indomethacin for a prolonged period
